Test results published in patent US20260028390A1, “ALPHA1-ANTITRYPSIN FOR USE IN THE TREATMENT OF DISEASES OR DISORDERS OF THE NERVOUS SYSTEM SUCH AS CHRONIC INFLAMMATORY DEMYELINATING POLYNEUROPATHY” (Ageronix SA, priority 2022, published 2026).
“And” between values parts separate entries of the source, which are not always exact repeats. Identical values can stand only once.

Columns and labels:
plasma IL-6 = assay: Plasma IL-6 concentration, CMT1A mouse study (50 mg/kg twice daily); type: in vivo; conditions: for Plasma IL-6 concentration (Mean ± SD): CMT1A mice
Experimental: Animals were split in 3 groups (wild-type control (subcutaneous 0.9% NaCl), CMT1A-vehicle (subcutaneous 0.9% NaCl), CMT1A-human alpha-1 antitrypsin (subcutaneous, twice daily, 50 mg/kg per injection)) of 3 mice each (3 weeks old males of 18±2.5 g at the beginning of study) and all went through the following protocol after 7 days of acclimation on site.
Starting from the age of 4 weeks, animals were subjected to blood samplings for the determination of interleukin-6 (IL-6) and tumor necrosing factor alpha (TNFα) levels, as described in FIG. 16.

plasma TMPRSS5 = assay: Plasma TMPRSS5, CIDP mouse model; type: in vivo; conditions: CIDP + AAT
Experimental: C57BL/6 mice were received at 8 weeks of age and housed under controlled conditions for the duration of the study. Three groups of 4 animals each were assigned to the following subcutaneous treatments twice daily at 7:00 AM and 7:00 PM for 2 weeks, from 20 to 35 days after the start of disease induction: • Wild type (WT) mice receiving the vehicle, 0.9% NaCl (positive control) • CIDP mice receiving the vehicle, 0.9% NaCl (negative control) • CIDP mice receiving human AAT (AAT), 50 mg/kg per injection
On the day preceding disease induction (Day 1), on the first (Day 20) and on the last (Day 35) treatment day, animals were subjected to blood samplings for the determination of neurofilament light chain (NfL), tumour necrosing factor alpha (TNFα) and TMPRSS5 levels, as described in FIG. 20. In addition, plasma levels of AAT were evaluated on the last treatment day.

[1] = test system: CMT1A mice B6.Cg-Tg(PMP22)C3Fbas/J; assay: Sciatic nerve electrophysiology (CMAP, NCV), CMT mice treated with AAT 180 mg/kg/day sc; type: in vivo, mouse; conditions: 6 weeks old, CMT + hAAT

With alpha1-antitrypsin (AAT) protein as the substance, how does the “Plasma IL-6 concentration (Mean ± SD)” value (plasma IL-6; Day 1 (baseline)) read?
The value was 34.19 ± 1.67 pg/mL.

And the “Plasma IL-6 concentration (Mean ± SD)” value (plasma IL-6; Day 8)?
Its value is 39.10 ± 1.91 pg/mL.

What about the “Plasma IL-6 concentration (Mean ± SD)” value (plasma IL-6; Day 14) of the same substance?
The value was 84.21 ± 4.727 pg/mL.

And the “Plasma IL-6 concentration (Mean ± SD)” value (plasma IL-6; Day 29)?
Its value is 90.20 ± 3.085 ^† pg/mL.

And the “plasma IL-6 concentration vs animals treated with vehicle” value (plasma IL-6; CMT + AAT, day 29)?
Its value is “lower”.

What about the “plasma TMPRSS5 concentration compared to the vehicle group” value (plasma TMPRSS5) of the same substance?
The value was “No statistically significant differences”.

What about the “Amplitude, group MEAN” value ([1]; 8 mice) of the same substance?
Its value is 6.628 mV.

And the Amplitude ([1]; individual mouse)?
Its Amplitude is 7.828 mV and 3.009 mV and 5.770 mV and 5.919 mV and 7.925 mV and 8.742 mV and 6.803 mV and 7.028 mV.

What about the Conduction velocity ([1]; individual mouse) of the same substance?
Its Conduction velocity is 31.949 m/s and 34.989 m/s and 30.328 m/s and 19.190 m/s and 18.114 m/s and 20.530 m/s and 26.247 m/s and 28.783 m/s.

What about the T1 distal ([1]; individual mouse) of the same substance?
The T1 distal was 7.416 ms and 5.701 ms and 12.428 ms and 5.913 ms and 6.041 ms and 3.664 ms and 4.204 ms and 3.385 ms.

What about the T2 proximal ([1]; individual mouse) of the same substance?
Its T2 proximal is 7.885 ms and 6.130 ms and 12.922 ms and 6.694 ms and 6.869 ms and 4.395 ms and 4.775 ms and 3.906 ms.
